From the C3SDB collision cross section collection
Where “and” joins values, the source holds several entries; their conditions need not be identical. Identical values can stand only once.

Details: [M+H-H2O]+; instrument: TW; calibrated with polyalanine and drug standards

Structure (SMILES)	collision cross section (N2) [Å²]
NC[C@H](O)c1ccc(O)c(O)c1 [NOREPINEPHRINE]	132.6

Same assay, conditions: [M+H]+; instrument: TW; calibrated with polyalanine and drug standards

Structure (SMILES)	collision cross section (N2)
C[N+](C)(C)C[C@H](O)CC(=O)[O-] [LEVOCARNITINE]	132.9 Å²
C[C@H]1COc2c(N3CCN(C)CC3)c(F)cc3c(=O)c(C(=O)O)cn1c23 [LEVOFLOXACIN]	188.5 Å²
C[C@H](CCC(=O)O)[C@H]1CC[C@H]2[C@@H]3CC[C@@H]4C[C@H](O)CC[C@]4(C)[C@H]3CC[C@]12C [LITHOCHOLIC ACID]	210.8 Å²
CCCCCc1c2c(cc(O)c1C(=O)O)OC(=O)c1c(cc(OC)cc1C(=O)CCCC)O2 [LOBARIC ACID]	209.7 Å²
CCOC(=O)Nc1nc2ccccc2[nH]1 [LOBENDAZOLE]	141.7 Å²
O=C1CC[C@]23/C=C/C(=O)NCCCCNCCCNC(=O)/C=C/c4ccc(c2c4)O[C@@H]3C1 [LUNARINE]	203.4 Å²
OC[C@@H]1CCCN2CCCC[C@H]12 [LUPININE]	135.3 Å²
O=c1c2cc(O)c(O)cc2oc2cc(O)c([C@@H]3O[C@H](CO)[C@@H](O)[C@H](O)[C@H]3O)c(O)c12 [MANGIFERIN]	189.8 Å²
COC(=O)Nc1nc2ccc(C(=O)c3ccccc3)cc2[nH]1 [MEBENDAZOLE]	171.2 Å²
CC(=O)O[C@]1(C(C)=O)CC[C@H]2[C@@H]3C[C@H](C)C4=CC(=O)CC[C@]4(C)[C@H]3CC[C@@]21C [MEDROXYPROGESTERONE ACETATE]	197.2 Å²
CC(=O)[C@H]1CC[C@H]2[C@@H]3C[C@H](C)C4=CC(=O)CC[C@]4(C)[C@H]3[C@@H](O)C[C@]12C [MEDRYSONE]	183.2 Å²
CCN(CC)CCNC(=O)COc1ccc(OC)cc1 [MEFEXAMIDE]	171.2 Å²
O[C@@H](c1cc(C(F)(F)F)nc2c(C(F)(F)F)cccc12)[C@H]1CCCCN1 [MEFLOQUINE]	181.8 Å²
CNC[C@H](O)[C@@H](O)[C@H](O)[C@H](O)CO [MEGLUMINE]	139 Å²
CC1=C2C(O)C(=O)OC3CC4C(C)(C)C(=O)C=C[C@]4(C)C(CC1)[C@]23C (stereo partly specified) [MEROGEDUNIN]	179.8 Å²
Cn1cc[nH]c1=S [METHIMAZOLE]	117.2 Å² and 117.1 Å²
CN(Cc1cnc2nc(N)nc(N)c2n1)c1ccc(C(=O)N[C@@H](CCC(=O)O)C(=O)O)cc1 [METHOTREXATE]	194.8 Å²
COc1c2occc2cc2ccc(=O)oc12 [METHOXSALEN]	139.9 Å²
C[C@](N)(Cc1ccc(O)c(O)c1)C(=O)O [METHYLDOPA]	147.6 Å²
CC1=CC2C(CC1=O)C(C)=CCC2C(C)C (stereo unspecified) [MUUROLLADIE-3-ONE]	138.5 Å²
c1cncc(C2=NCCC2)c1 [MYOSMINE]	128.2 Å²

Structure (SMILES)	collision cross section (N2)
NC(N)=NC(=O)c1nc(Cl)c(N2CCCCCC2)nc1N [N,N-HEXAMETHYLENEAMILORIDE]	174.7 Å²
CCC(C)C(NC)C(=O)O (stereo unspecified) [N-METHYLISOLEUCINE]	130.6 Å²
CN1CCOC(c2ccccc2)c2ccccc2C1 (stereo unspecified) [NEFOPAM]	157.1 Å²
Cc1c(NC(=O)c2cccnc2)c(=O)n(-c2ccccc2)n1C [NIFENAZONE]	172.5 Å²
COc1ccc(-c2cc(=O)c3c(OC)c(OC)c(OC)c(OC)c3o2)cc1OC [NOBILETIN]	191.3 Å²
CCn1cc(C(=O)O)c(=O)c2cc(F)c(N3CCNCC3)cc21 [NORFLOXACIN]	184.2 Å² and 170 Å²
C#C[C@]1(OC(C)=O)CC[C@H]2[C@@H]3CCC4=C/C(=N/O)CC[C@@H]4[C@H]3CC[C@@]21CC [NORGESTIMATE]	197.6 Å²
C#C[C@]1(O)CC[C@H]2[C@@H]3CCC4=CC(=O)CC[C@@H]4[C@H]3CC[C@@]21CC [NORGESTREL]	178.6 Å²
CNCCC=C1c2ccccc2CCc2ccccc21 [NORTRIPTYLINE]	163.1 Å²
C=C(C)[C@H]1COc2cc3oc(=O)ccc3cc2O1 [OBLIQUIN]	150.1 Å²
COc1ccc(CC(=O)c2ccc(O)cc2O)cc1 [ONONETIN]	157.4 Å²
CN1CCCN=C1/C=C/c1cccc(O)c1 [OXANTEL]	152.6 Å²
CN(C(=O)CN(CCO)CC(=O)N(C)C(C)(C)Cc1ccccc1)C(C)(C)Cc1ccccc1 [OXETHAZAINE]	213.7 Å²
COc1cc2c(cc1-c1cc3cc4ccoc4cc3oc1=O)OCO2 [PACHYRRHIZIN]	170.7 Å²
COc1ccnc(CS(=O)c2nc3ccc(OC(F)F)cc3[nH]2)c1OC (stereo unspecified) [PANTOPRAZOLE]	183.4 Å²
Oc1ccc(Cl)cc1 [PARACHLOROPHENOL]	108.8 Å²
OC1(c2ccc(Cl)c(C(F)(F)F)c2)CCN(CCCC(c2ccc(F)cc2)c2ccc(F)cc2)CC1 [PENFLURIDOL]	219.1 Å²
C1CCc2nnnn2CC1 [PENTYLENETETRAZOL]	124.5 Å²
CCOc1ccc(NC(C)=O)cc1 [PHENACETIN]	140.5 Å²
O=C1OC(c2ccc(O)cc2)(c2ccc(O)cc2)c2ccccc21 [PHENOLPHTHALEIN]	172.1 Å²
CC(C)=CC1C(C(=O)OCc2cccc(Oc3ccccc3)c2)C1(C)C (stereo unspecified) [PHENOTHRIN]	187.5 Å²

Structure (SMILES)	collision cross section (N2)
Nc1ccc(C(=O)Oc2ccccc2)c(O)c1 [PHENYL AMINOSALICYLATE]	163.4 Å²
CCCCC1C(=O)N(c2ccccc2)N(c2ccccc2)C1=O [PHENYLBUTAZONE]	172.4 Å²
COc1c(OC)c2occc2c2oc(=O)ccc12 [PIMPINELLIN]	146.4 Å²
CC(N=C(NC#N)Nc1ccncc1)C(C)(C)C (stereo unspecified) [PINACIDIL]	165.2 Å²
O=C(O)/C=C/C=C/c1ccc2c(c1)OCO2 [PIPERIC ACID]	138.6 Å²
O=C(/C=C/C=C/c1ccc2c(c1)OCO2)N1CCCCC1 [PIPERINE]	171.4 Å²
CCn1cc(C(=O)O)c(=O)c2cnc(N3CCCC3)nc21 [PIROMIDIC ACID]	161.1 Å²
CN1C(C(=O)Nc2ccccn2)=C(O)c2ccccc2S1(=O)=O [PIROXICAM]	170.7 Å²
CC(C)c1c(O)c(-c2cc3c(c(C(C)C)c2O)CCC2C(C)(C)CCC[C@]32C)cc2c1CCC1C(C)(C)CCC[C@]21C (stereo partly specified) [PODOTOTARIN]	255.6 Å²
CC(C)=CCc1c2c(c3occ(-c4ccc(O)c(O)c4)c(=O)c3c1O)C=CC(C)(C)O2 [POMIFERIN]	205.8 Å²
CC(=O)OCC(=O)[C@@]1(O)CC[C@H]2[C@@H]3CCC4=CC(=O)C=C[C@]4(C)[C@H]3[C@@H](O)C[C@@]21C [PREDNISOLONE ACETATE]	194 Å²
C[C@]12C=CC(=O)C=C1CC[C@@H]1[C@@H]2C(=O)C[C@@]2(C)[C@H]1CC[C@]2(O)C(=O)CO [PREDNISONE]	181.8 Å²
CCC1(c2ccccc2)C(=O)NCNC1=O [PRIMIDONE]	146.9 Å²
CCCn1cnc2c1c(=O)n(CCCCC(C)=O)c(=O)n2C [PROPENTOFYLLINE]	168.3 Å²
CCCc1cc(=O)[nH]c(=S)[nH]1 [PROPYLTHIOURACIL]	134.7 Å²
CCCc1cc(C(N)=S)ccn1 [PROTIONAMIDE]	141.3 Å²
CC[C@@H](C)C(=O)O[C@H]1[C@H](O)[C@H]2[C@@H](CN3C[C@@H](C)CC[C@H]3[C@@]2(C)O)[C@@H]2C[C@]34O[C@]5(O)[C@@H](OC(=O)[C@@](C)(O)CC)CC[C@@]3(C)[C@@H]5[C@@H](OC(C)=O)[C@@H](OC(C)=O)[C@H]4[C@@]21O [PROTOVERATRINE A]	285.2 Å²
CC[C@@H](C)C(=O)O[C@H]1[C@H](O)[C@H]2[C@@H](CN3C[C@@H](C)CC[C@H]3[C@@]2(C)O)[C@@H]2C[C@]34O[C@]5(O)[C@@H](OC(=O)[C@](C)(O)[C@@H](C)O)CC[C@@]3(C)[C@@H]5[C@@H](OC(C)=O)[C@@H](OC(C)=O)[C@H]4[C@@]21O [PROTOVERATRINE B]	287 Å²
CCc1nc(N)nc(N)c1-c1ccc(Cl)cc1 [PYRIMETHAMINE]	155.8 Å²

Same assay, conditions: [M+Na]+; instrument: TW; calibrated with polyalanine and drug standards

Structure (SMILES)	collision cross section (N2) [Å²]
COC(C)(C)CCC[C@H](C)C/C=C/C(C)=C/C(=O)OC(C)C [METHOPRENE (S)]	187
CC[C@H](C)C(=O)O[C@H]1CCC=C2C=C[C@H](C)[C@H](CC[C@@H]3C[C@@H](O)CC(=O)O3)[C@H]21 [MEVASTATIN]	198.4
CC(C)(O)[C@@H]1[C@H]2OC(=O)[C@@H]1[C@]1(O)C[C@H]3O[C@]34C(=O)O[C@H]2[C@]14C [PICROTIN]	173.7
C=C(C)[C@@H]1[C@H]2OC(=O)[C@@H]1[C@]1(O)C[C@H]3O[C@]34C(=O)O[C@H]2[C@]14C [PICROTOXININ]	168.7
